# Results from publication PMC5399447, “Neuroprotective pentapeptide CN-105 is associated with reduced sterile inflammation and improved functional outcomes in a traumatic brain injury murine model” (Scientific Reports, 2017).
# Tested on: 84 genes related to inflammatory and autoimmune processes
# Test: Mouse Inflammatory Response and Autoimmunity PCR Array, whole brain
# Assay type: in vivo
# Parameters: key to Il9 ΔCt value, S-CN-105 / Il8ra ΔCt value, S-CN-105 / Il1rn ΔCt value, S-CN-105 / Il1f10 ΔCt value, S-CN-105 / Crp ΔCt value, S-CN-105: *: Indicate mRNA expression was below the level of detection
# Settings: brain 24 h
# Procedure: Frozen, pulverized whole brain tissue was processed for RNA extraction from a separate cohort of treated and untreated injured animals on days 1 post-injury(CN-105, n = 4; vehicle, n = 3; Control(sham-operated), n = 3). Total RNA was extracted from frozen, pulverized whole brain tissue using RNeasy Lipid Tissue Mini Kit(Qiagen, Valencia, CA). RNA quantity and quality was assessed with the NanoDrop ND-1000 spectrophotometer(NanoDrop Technologies, Inc., Wilmington, DE) and by agarose gel electrophoresis. Only samples with a 260/280 ratio between 1.9–2.1, and a 260/230 ratio greater than 2.0, were further processed. First strand complementary DNA(cDNA) was generated from 2 μg total RNA using the RT[2] First strand kit(SABiosciences, Frederick, MD.)
# Gene expression was measured using the Mouse Inflammatory Response and Autoimmunity PCR Array(SABiosciences, Frederick, MD), which profiles the expression of 84 genes related to inflammatory and autoimmune processes. RT-PCR was performed according to manufacturer’s instructions Quality of the cDNA and PCR efficiency was verified by housekeeping genes and RT-PCR controls included in the PCR Array.
# Raw RT-PCR data were analyzed using the Web-Based PCR Array Data Analysis software(SABiosciences). ΔCt values and ΔΔCt - based fold-change were calculated from raw threshold cycle data, using beta-actin and glyceraldehyde 3-phosphate dehydrogenase(GAPDH) as internal standards for normalization. Fold changes were then normalized against sham-operated controls.
substance,measurement,setting,value
Ac-VSRRR-amide [CN-105],Fos fold change TBI-CN-105/S-v,TBI CN-105 vs sham vehicle,1.1
same,Hdac4 fold change TBI-CN-105/S-v,TBI CN-105 vs sham vehicle,13.9
same,Ifng fold change TBI-CN-105/S-v,TBI CN-105 vs sham vehicle,59.7
same,Il1a fold change TBI-CN-105/S-v,TBI CN-105 vs sham vehicle,37.7
same,Il1b fold change TBI-CN-105/S-v,TBI CN-105 vs sham vehicle,416.6
same,Il1f10 fold change TBI-CN-105/S-v,TBI CN-105 vs sham vehicle,352.3
same,Il1r1 fold change TBI-CN-105/S-v,TBI CN-105 vs sham vehicle,−6.2
same,Il1rap fold change TBI-CN-105/S-v,TBI CN-105 vs sham vehicle,−37.5
same,Il1rn fold change TBI-CN-105/S-v,TBI CN-105 vs sham vehicle,74.2
same,Il6 fold change TBI-CN-105/S-v,TBI CN-105 vs sham vehicle,13.2
same,Il6ra fold change TBI-CN-105/S-v,TBI CN-105 vs sham vehicle,47.9
same,Il7 fold change TBI-CN-105/S-v,TBI CN-105 vs sham vehicle,5569.8
same,Il8ra fold change TBI-CN-105/S-v,TBI CN-105 vs sham vehicle,196.8
same,Il8rb fold change TBI-CN-105/S-v,TBI CN-105 vs sham vehicle,658.4
same,Il9 fold change TBI-CN-105/S-v,TBI CN-105 vs sham vehicle,1155.5
same,Il10 fold change TBI-CN-105/S-v,TBI CN-105 vs sham vehicle,82.2
same,Il10rb fold change TBI-CN-105/S-v,TBI CN-105 vs sham vehicle,1.5
same,Il18 fold change TBI-CN-105/S-v,TBI CN-105 vs sham vehicle,−9.5
same,Il18rap fold change TBI-CN-105/S-v,TBI CN-105 vs sham vehicle,58.6
same,Il22 fold change TBI-CN-105/S-v,TBI CN-105 vs sham vehicle,77.8
same,Il22ra2 fold change TBI-CN-105/S-v,TBI CN-105 vs sham vehicle,3448.3
same,Il23a fold change TBI-CN-105/S-v,TBI CN-105 vs sham vehicle,838.4
same,Il23r fold change TBI-CN-105/S-v,TBI CN-105 vs sham vehicle,7.2
same,Itgb2 fold change TBI-CN-105/S-v,TBI CN-105 vs sham vehicle,9.6
same,Lta fold change TBI-CN-105/S-v,TBI CN-105 vs sham vehicle,917.0
same,Ltb fold change TBI-CN-105/S-v,TBI CN-105 vs sham vehicle,75.7
same,Ly96 fold change TBI-CN-105/S-v,TBI CN-105 vs sham vehicle,19.9
same,Myd88 fold change TBI-CN-105/S-v,TBI CN-105 vs sham vehicle,8.5
same,Nfatc3 fold change TBI-CN-105/S-v,TBI CN-105 vs sham vehicle,364.7
same,Nfkb1 fold change TBI-CN-105/S-v,TBI CN-105 vs sham vehicle,−3.1
same,Nos2 fold change TBI-CN-105/S-v,TBI CN-105 vs sham vehicle,1779.4
same,Nr3c1 fold change TBI-CN-105/S-v,TBI CN-105 vs sham vehicle,−17.8
same,Ripk2 fold change TBI-CN-105/S-v,TBI CN-105 vs sham vehicle,30.1
same,Tirap fold change TBI-CN-105/S-v,TBI CN-105 vs sham vehicle,14.0
same,Tlr1 fold change TBI-CN-105/S-v,TBI CN-105 vs sham vehicle,15.4
same,Tlr2 fold change TBI-CN-105/S-v,TBI CN-105 vs sham vehicle,10.0
same,Tlr3 fold change TBI-CN-105/S-v,TBI CN-105 vs sham vehicle,3.9
same,Tlr4 fold change TBI-CN-105/S-v,TBI CN-105 vs sham vehicle,6.5
same,Tlr5 fold change TBI-CN-105/S-v,TBI CN-105 vs sham vehicle,2.5
same,Tlr6 fold change TBI-CN-105/S-v,TBI CN-105 vs sham vehicle,14.9
same,Tlr7 fold change TBI-CN-105/S-v,TBI CN-105 vs sham vehicle,546.2
same,Tnf fold change TBI-CN-105/S-v,TBI CN-105 vs sham vehicle,1367.7
same,Tnfsf14 fold change TBI-CN-105/S-v,TBI CN-105 vs sham vehicle,365.9
same,Tollip fold change TBI-CN-105/S-v,TBI CN-105 vs sham vehicle,−3.2
same,"Bcl6 ΔCt value, S-CN-105",sham + CN-105 0.05 mg/kg iv,6.6E − 02
same,"C3ar1 ΔCt value, S-CN-105",sham + CN-105 0.05 mg/kg iv,4.1E − 03
same,"C3 ΔCt value, S-CN-105",sham + CN-105 0.05 mg/kg iv,7.0E − 04
same,"C4b ΔCt value, S-CN-105",sham + CN-105 0.05 mg/kg iv,7.0E − 03
same,"Ccl1 ΔCt value, S-CN-105",sham + CN-105 0.05 mg/kg iv,2.3E − 05
same,"Ccl2 ΔCt value, S-CN-105",sham + CN-105 0.05 mg/kg iv,8.3E − 04
same,"Ccl3 ΔCt value, S-CN-105",sham + CN-105 0.05 mg/kg iv,8.0E − 04
same,"Ccl4 ΔCt value, S-CN-105",sham + CN-105 0.05 mg/kg iv,3.8E − 04
same,"Ccl5 ΔCt value, S-CN-105",sham + CN-105 0.05 mg/kg iv,1.1E − 03
same,"Ccl7 ΔCt value, S-CN-105",sham + CN-105 0.05 mg/kg iv,1.6E − 03
same,"Ccl8 ΔCt value, S-CN-105",sham + CN-105 0.05 mg/kg iv,2.1E − 03
same,"Ccl11 ΔCt value, S-CN-105",sham + CN-105 0.05 mg/kg iv,2.5E − 04
same,"Ccl12 ΔCt value, S-CN-105",sham + CN-105 0.05 mg/kg iv,6.5E − 03
same,"Ccl17 ΔCt value, S-CN-105",sham + CN-105 0.05 mg/kg iv,4.2E − 03
same,"Ccl19 ΔCt value, S-CN-105",sham + CN-105 0.05 mg/kg iv,2.9E − 02
same,"Ccl20 ΔCt value, S-CN-105",sham + CN-105 0.05 mg/kg iv,1.1E − 04
same,"Ccl22 ΔCt value, S-CN-105",sham + CN-105 0.05 mg/kg iv,3.8E − 04
same,"Ccl24 ΔCt value, S-CN-105",sham + CN-105 0.05 mg/kg iv,9.7E − 05
same,"Ccl25 ΔCt value, S-CN-105",sham + CN-105 0.05 mg/kg iv,1.4E − 02
same,"Ccr1 ΔCt value, S-CN-105",sham + CN-105 0.05 mg/kg iv,7.1E − 04
same,"Ccr2 ΔCt value, S-CN-105",sham + CN-105 0.05 mg/kg iv,5.5E − 04
same,"Ccr3 ΔCt value, S-CN-105",sham + CN-105 0.05 mg/kg iv,2.1E − 03
same,"Ccr4 ΔCt value, S-CN-105",sham + CN-105 0.05 mg/kg iv,6.0E − 06
same,"Ccr7 ΔCt value, S-CN-105",sham + CN-105 0.05 mg/kg iv,2.1E − 04
same,"Cd40lg ΔCt value, S-CN-105",sham + CN-105 0.05 mg/kg iv,6.9E − 05
same,"Cd40 ΔCt value, S-CN-105",sham + CN-105 0.05 mg/kg iv,8.3E − 04
same,"Cebpb ΔCt value, S-CN-105",sham + CN-105 0.05 mg/kg iv,1.1E − 01
same,"Crp ΔCt value, S-CN-105",sham + CN-105 0.05 mg/kg iv,*
same,"Csf1 ΔCt value, S-CN-105",sham + CN-105 0.05 mg/kg iv,1.9E − 02
same,"Cxcl1 ΔCt value, S-CN-105",sham + CN-105 0.05 mg/kg iv,1.6E − 04
same,"Cxcl2 ΔCt value, S-CN-105",sham + CN-105 0.05 mg/kg iv,2.8E − 04
same,"Cxcl3 ΔCt value, S-CN-105",sham + CN-105 0.05 mg/kg iv,2.3E − 05
same,"Cxcl5 ΔCt value, S-CN-105",sham + CN-105 0.05 mg/kg iv,2.5E − 03
same,"Cxcl9 ΔCt value, S-CN-105",sham + CN-105 0.05 mg/kg iv,1.0E − 04
same,"Cxcl10 ΔCt value, S-CN-105",sham + CN-105 0.05 mg/kg iv,1.9E − 03
same,"Cxcl11 ΔCt value, S-CN-105",sham + CN-105 0.05 mg/kg iv,9.0E − 05
same,"Cxcr4 ΔCt value, S-CN-105",sham + CN-105 0.05 mg/kg iv,6.6E − 03
same,"Fasl ΔCt value, S-CN-105",sham + CN-105 0.05 mg/kg iv,1.9E − 04
same,"Flt3l ΔCt value, S-CN-105",sham + CN-105 0.05 mg/kg iv,3.0E − 03
same,"Fos ΔCt value, S-CN-105",sham + CN-105 0.05 mg/kg iv,2.3E − 01
same,"Hdac4 ΔCt value, S-CN-105",sham + CN-105 0.05 mg/kg iv,9.1E − 02
same,"Ifng ΔCt value, S-CN-105",sham + CN-105 0.05 mg/kg iv,5.8E − 05
same,"Il1a ΔCt value, S-CN-105",sham + CN-105 0.05 mg/kg iv,1.9E − 03
same,"Il1b ΔCt value, S-CN-105",sham + CN-105 0.05 mg/kg iv,2.0E − 03
same,"Il1f10 ΔCt value, S-CN-105",sham + CN-105 0.05 mg/kg iv,*
same,"Il1r1 ΔCt value, S-CN-105",sham + CN-105 0.05 mg/kg iv,1.2E − 02
same,"Il1rap ΔCt value, S-CN-105",sham + CN-105 0.05 mg/kg iv,4.4E − 02
same,"Il1rn ΔCt value, S-CN-105",sham + CN-105 0.05 mg/kg iv,*
same,"Il6ra ΔCt value, S-CN-105",sham + CN-105 0.05 mg/kg iv,4.9E − 03
same,"Il6 ΔCt value, S-CN-105",sham + CN-105 0.05 mg/kg iv,1.1E − 04
same,"Il7 ΔCt value, S-CN-105",sham + CN-105 0.05 mg/kg iv,3.2E − 04
same,"Il8ra ΔCt value, S-CN-105",sham + CN-105 0.05 mg/kg iv,*
same,"Il8rb ΔCt value, S-CN-105",sham + CN-105 0.05 mg/kg iv,6.1E − 05
same,"Il9 ΔCt value, S-CN-105",sham + CN-105 0.05 mg/kg iv,*
same,"Il10rb ΔCt value, S-CN-105",sham + CN-105 0.05 mg/kg iv,3.0E − 02
same,"Il10 ΔCt value, S-CN-105",sham + CN-105 0.05 mg/kg iv,1.1E − 04
same,"Il18rap ΔCt value, S-CN-105",sham + CN-105 0.05 mg/kg iv,4.5E − 05
same,"Il18 ΔCt value, S-CN-105",sham + CN-105 0.05 mg/kg iv,1.8E − 01
